≈ marks a conversion by molar mass, not a printed value. Read-outs that look alike come from different tables or passages of the source. Values belong to the molecule of their own block, whether it stands above or below them.
Columns and labels:
Staphylococcus aureus [1] = experiment: Mode MIC of antibiotic and PA 1,1-Dioxide alone and in combination; assay type: cell-based; settings: for MIC: Staphylococcus aureus, 18 h, read-out: Mode MIC alone; for Mode MIC's of Cefazolin and PA 1,1-Dioxide in Combination: Cefazolin + PA 1,1-Dioxide in combination
Description: (§1) As indicated hereinbefore, the compounds of formula I, wherein R^1 is hydrogen or an ester-forming residue readily hydrolyzable in vivo, are antibacterial agents of medium potency. […] The procedure which is followed is the one recommended by the International Collaborative Study on Antibiotic Sensitivity Testing (Ericcson and Sherris, Acta. Pathologica et Microbiologia Scandinav, Supp. 217, Section B: 64-68 [1971]), and employs brain heart infusion (BHI) agar and the inocula replicating device. Overnight growth tubes are diluted 100 fold for use as the standard inoculum (20,000-10,000 cells in approximately 0.002 ml. are placed on the agar surface; 20 ml. of BHI agar/dish). Twelve 2 fold dilutions of the test compound are employed, with initial concentration of the test drug being 200 mcg./ml. Single colonies are disregarded when reading plates after 18 hrs. at 37° C. The susceptibility (MIC) of the test organism is accepted as the lowest concentration of compound capable of producing complete inhibition of growth as judged by the naked eye.
(§2) The manner in which the said compounds of the formula I increase the effectiveness of a β-lactam antibiotic can be appreciated by reference to experiments in which the MIC of a given antibiotic alone, and a compound of the formula I wherein R^1 is hydrogen, alone, are measured. These MIC's are then compared with the MIC values obtained with a combination of the given antibiotic and the compound of the formula I wherein R^1 is hydrogen. […] The MIC values of combinations are measured using the method described by Barry and Sabath in "Manual of Clinical Microbiology", edited by Lenette, Spaulding and Truant, 2nd Edition, 1974, American Society for Microbiology.
(§3) From Table II, it can be seen that against 19 ampicillin-resistant strains of Staphylococcus aureus, the mode MIC of ampicillin, and of penicillanic acid 1,1-dioxide, is 200 mcg./ml. […] The other entries in Table II show enhancement of the antibacterial effectiveness of ampicillin against 26 ampicillin resistant strains of Haemophilus influenzae, 18 ampicillin resistant strains of Klebsiella pneumoniae, and 15 strains of the anerobe Bacteroides fragilis. Tables III, IV and V show enhancement of the antibacterial potency of benzylpenicillin (penicillin G) carbenicillin (α-carboxybenzylpenicillin) and cefazolin, respectively, against strains of S. aureus, H. influenzae, K. pneumoniae and Bacteroides fragilis.

Haemophilus influenzae = experiment: as above; assay type: cell-based; settings: for MIC: Haemophilus influenzae, 18 h, alone; for Mode MIC's of Cefazolin and PA 1,1-Dioxide in Combination: Cefazolin + PA 1,1-Dioxide in combination
Description: as §1, §2, §3

Bacteroides fragilis = experiment: as above; assay type: cell-based; settings: for MIC: Bacteroides fragilis, 18 h, read-out: Mode MIC alone; for Mode MIC's of Cefazolin and PA 1,1-Dioxide in Combination: Cefazolin + PA 1,1-Dioxide in combination
Description: as §1, §2, §3

Klebsiella pneumoniae [2] = experiment: as above; assay type: cell-based; settings: for MIC: Klebsiella pneumoniae, 18 h, read-out: Mode MIC alone; for Mode MIC's of Cefazolin and PA 1,1-Dioxide in Combination: Cefazolin + PA 1,1-Dioxide in combination
Description: as §1, §2, §3

[3] = tested on: many microorganisms, particularly those which produce a β-lactamase; experiment: Enhancement of antibacterial effectiveness of β-lactam antibiotics (combination MIC); assay type: cell-based; settings: result in words; combination with β-lactam antibiotic
Experimental: as §2

Neisseria gonorrhoeae = experiment: In vitro antibacterial activity (MIC), Table I; assay type: cell-based; settings: BHI agar, 18 hrs. at 37° C.
Description: as §1

Proteus morgani = experiment: In vitro antibacterial activity (MIC), Table I; assay type: cell-based; settings: BHI agar, 18 hrs. at 37° C.
Description: as §1

Staphylococcus epidermis = experiment: In vitro antibacterial activity (MIC), Table I; assay type: cell-based; settings: BHI agar, 18 hrs. at 37° C.
Description: as §1

Pseudomonas putida = experiment: In vitro antibacterial activity (MIC), Table I; assay type: cell-based; settings: BHI agar, 18 hrs. at 37° C.
Description: as §1

Enterobacter clocae = experiment: In vitro antibacterial activity (MIC), Table I; assay type: cell-based; settings: BHI agar, 18 hrs. at 37° C.
Description: as §1

Providencia = experiment: In vitro antibacterial activity (MIC), Table I; assay type: cell-based; settings: BHI agar, 18 hrs. at 37° C.
Description: as §1

Enterobacter aerogenes = experiment: In vitro antibacterial activity (MIC), Table I; assay type: cell-based; settings: Klebsiella aerogenes; BHI agar, 18 hrs. at 37° C.
Description: as §1

Staphylococcus aureus [4] = experiment: In vitro antibacterial activity (MIC), Table I; assay type: cell-based; settings: BHI agar, 18 hrs. at 37° C.
Description: as §1

Streptococcus faecalis = experiment: In vitro antibacterial activity (MIC), Table I; assay type: cell-based; settings: Enterococcus faecalis; BHI agar, 18 hrs. at 37° C.
Description: as §1

Streptococcus pyogenes = experiment: In vitro antibacterial activity (MIC), Table I; assay type: cell-based; settings: BHI agar, 18 hrs. at 37° C.
Description: as §1

Proteus mirabilis = experiment: In vitro antibacterial activity (MIC), Table I; assay type: cell-based; settings: BHI agar, 18 hrs. at 37° C.
Description: as §1

Citrobacter freundii = experiment: In vitro antibacterial activity (MIC), Table I; assay type: cell-based; settings: BHI agar, 18 hrs. at 37° C.
Description: as §1

Pasteurella multocida = experiment: In vitro antibacterial activity (MIC), Table I; assay type: cell-based; settings: BHI agar, 18 hrs. at 37° C.
Description: as §1

Serratia marcescens = experiment: In vitro antibacterial activity (MIC), Table I; assay type: cell-based; settings: BHI agar, 18 hrs. at 37° C.
Description: as §1

Klebsiella pneumoniae [5] = experiment: In vitro antibacterial activity (MIC), Table I; assay type: cell-based; settings: BHI agar, 18 hrs. at 37° C.
Description: as §1

Hemophilus influenzae = experiment: In vitro antibacterial activity (MIC), Table I; assay type: cell-based; settings: Haemophilus influenzae; BHI agar, 18 hrs. at 37° C.
Description: as §1

Escherichia coli = experiment: In vitro antibacterial activity (MIC), Table I; assay type: cell-based; settings: BHI agar, 18 hrs. at 37° C.
Description: as §1

Pseudomonas aeruginosa = experiment: In vitro antibacterial activity (MIC), Table I; assay type: cell-based; settings: BHI agar, 18 hrs. at 37° C.
Description: as §1

Salmonella typhimurium = experiment: In vitro antibacterial activity (MIC), Table I; assay type: cell-based; settings: Salmonella enterica, BHI agar, 18 hrs. at 37° C.
Description: as §1

microbial β-lactamases = experiment: Inhibition of microbial β-lactamases; assay type: biochemical; settings: result in words

MIC (Staphylococcus aureus [1]; Table V, 20 strains, alone): 0.78 µg/mL | Mode MIC's of Cefazolin and PA 1,1-Dioxide in Combination (Staphylococcus aureus [1]; Table V, 20 strains): 0.2 µg/mL | MIC (Haemophilus influenzae; Table V, 25 strains, read-out: Mode MIC alone): 25 µg/mL | Mode MIC's of Cefazolin and PA 1,1-Dioxide in Combination (Haemophilus influenzae; Table V, 25 strains): 3.12 µg/mL | MIC (Bacteroides fragilis; Table V, 15 strains, alone): 200 µg/mL | Mode MIC's of Cefazolin and PA 1,1-Dioxide in Combination (Bacteroides fragilis; Table V, 15 strains): 6.25 µg/mL | MIC (Klebsiella pneumoniae [2]; Table V, 3 strains, alone): 100 µg/mL | Mode MIC's of Cefazolin and PA 1,1-Dioxide in Combination (Klebsiella pneumoniae [2]; Table V, 3 strains): 6.25 µg/mL
SMILES: Cc1nnc(SCC2=C(C(=O)O)N3C(=O)[C@@H](NC(=O)Cn4cnnn4)[C@H]3SC2)s1 [Cefazolin, reference compound]

SMILES: CC1(C)[C@H](C(=O)O)N2C(=O)C[C@H]2S1(=O)=O [Penicillanic Acid 1,1-Dioxide]
enhancement of antibacterial effectiveness of β-lactam antibiotics [3]: enhances the effectiveness of ampicillin | MIC (Staphylococcus aureus [1]): 200 µg/mL | Mode MIC's of ampicillin and PA 1,1-Dioxide in combination (Staphylococcus aureus [1]; Table II, 19 ampicillin-resistant strains, ampicillin + PA 1,1-Dioxide in combination): 3.12 µg/mL | Mode MIC alone (Staphylococcus aureus [1]; Table III, 20 strains, alone): 200 µg/mL | Mode MIC's of penicillin G and PA 1,1-Dioxide in combination (Staphylococcus aureus [1]; Table III, 20 strains, penicillin G + PA 1,1-Dioxide in combination): 6.25 µg/mL | Mode MIC alone (Staphylococcus aureus [1]; Table IV, 20 strains, alone): 200 µg/mL | Mode MIC's of carbenicillin and PA 1,1-Dioxide in combination (Staphylococcus aureus [1]; Table IV, 20 strains, carbenicillin + PA 1,1-Dioxide in combination): 6.25 µg/mL | Mode MIC's of Cefazolin and PA 1,1-Dioxide in Combination (Staphylococcus aureus [1]; Table V, 20 strains): 25 µg/mL | Mode MIC alone (Staphylococcus aureus [1]; Table V, 20 strains, alone): 200 µg/mL | MIC (Haemophilus influenzae; read-out: Mode MIC alone, Table II, 26 ampicillin resistant strains): > 200 µg/mL | MIC (Haemophilus influenzae; read-out: Mode MIC alone, Table III, 25 strains): 100 µg/mL | MIC (Haemophilus influenzae; read-out: Mode MIC alone, Table IV, 25 strains): 100 µg/mL | MIC (Haemophilus influenzae; read-out: Mode MIC alone, Table V, 25 strains): 200 µg/mL | Mode MIC's of ampicillin and PA 1,1-Dioxide in combination (Haemophilus influenzae; Table II, 26 ampicillin resistant strains, ampicillin + PA 1,1-Dioxide in combination): 3.12 µg/mL | Mode MIC's of penicillin G and PA 1,1-Dioxide in combination (Haemophilus influenzae; Table III, 25 strains, penicillin G + PA 1,1-Dioxide in combination): 1.56 µg/mL | Mode MIC's of carbenicillin and PA 1,1-Dioxide in combination (Haemophilus influenzae; Table IV, 25 strains, carbenicillin + PA 1,1-Dioxide in combination): 0.78 µg/mL | Mode MIC's of Cefazolin and PA 1,1-Dioxide in Combination (Haemophilus influenzae; Table V, 25 strains): 0.2 µg/mL | MIC (Bacteroides fragilis): 50 µg/mL | Mode MIC's of ampicillin and PA 1,1-Dioxide in combination (Bacteroides fragilis; Table II, 15 strains, ampicillin + PA 1,1-Dioxide in combination): 0.78 µg/mL | Mode MIC alone (Bacteroides fragilis; Table III, 15 strains, alone): 50 µg/mL | Mode MIC's of penicillin G and PA 1,1-Dioxide in combination (Bacteroides fragilis; Table III, 15 strains, penicillin G + PA 1,1-Dioxide in combination): 0.39 µg/mL | Mode MIC alone (Bacteroides fragilis; Table IV, 15 strains, alone): 50 µg/mL | Mode MIC's of carbenicillin and PA 1,1-Dioxide in combination (Bacteroides fragilis; Table IV, 15 strains, carbenicillin + PA 1,1-Dioxide in combination): 0.78 µg/mL | Mode MIC's of Cefazolin and PA 1,1-Dioxide in Combination (Bacteroides fragilis; Table V, 15 strains): 6.25 µg/mL | Mode MIC alone (Bacteroides fragilis; Table V, 15 strains, alone): 50 µg/mL | MIC (Klebsiella pneumoniae [2]): 50 µg/mL | Mode MIC's of ampicillin and PA 1,1-Dioxide in combination (Klebsiella pneumoniae [2]; Table II, 18 ampicillin resistant strains, ampicillin + PA 1,1-Dioxide in combination): 6.25 µg/mL | Mode MIC alone (Klebsiella pneumoniae [2]; Table III, 24 strains, alone): 50 µg/mL | Mode MIC's of penicillin G and PA 1,1-Dioxide in combination (Klebsiella pneumoniae [2]; Table III, 24 strains, penicillin G + PA 1,1-Dioxide in combination): 12.5 µg/mL | Mode MIC alone (Klebsiella pneumoniae [2]; Table IV, 16 strains, alone): 50 µg/mL | Mode MIC's of carbenicillin and PA 1,1-Dioxide in combination (Klebsiella pneumoniae [2]; Table IV, 16 strains, carbenicillin + PA 1,1-Dioxide in combination): 6.25 µg/mL | Mode MIC's of Cefazolin and PA 1,1-Dioxide in Combination (Klebsiella pneumoniae [2]; Table V, 3 strains): 25 µg/mL | Mode MIC alone (Klebsiella pneumoniae [2]; Table V, 3 strains, alone): 50 µg/mL | MIC (Neisseria gonorrhoeae): 0.312 µg/mL (≈ 1.34 µM) | MIC (Proteus morgani): 100 µg/mL (≈ 429 µM) | MIC (Staphylococcus epidermis): 200 µg/mL (≈ 857 µM) | MIC (Pseudomonas putida): > 200 µg/mL | MIC (Enterobacter clocae): 100 µg/mL (≈ 429 µM) | MIC (Providencia): 100 µg/mL (≈ 429 µM) | MIC (Enterobacter aerogenes): 25 µg/mL (≈ 107 µM) | MIC (Staphylococcus aureus [4]): 100 µg/mL (≈ 429 µM) | MIC (Streptococcus faecalis): > 200 µg/mL | MIC (Streptococcus pyogenes): 100 µg/mL (≈ 429 µM) | MIC (Proteus mirabilis): 100 µg/mL (≈ 429 µM) | MIC (Citrobacter freundii): 50 µg/mL (≈ 214 µM) | MIC (Pasteurella multocida): 50 µg/mL (≈ 214 µM) | MIC (Serratia marcescens): 100 µg/mL (≈ 429 µM) | MIC (Klebsiella pneumoniae [5]): 50 µg/mL (≈ 214 µM) | MIC (Hemophilus influenzae): > 50 µg/mL | MIC (Escherichia coli): 50 µg/mL (≈ 214 µM) | MIC (Pseudomonas aeruginosa): 200 µg/mL (≈ 857 µM) | MIC (Salmonella typhimurium): 50 µg/mL (≈ 214 µM) | inhibition of microbial β-lactamases (microbial β-lactamases): potent inhibitors of microbial β-lactamases
